According to US9468693B2, “Labeled molecular imaging agents and methods of use” (GENERAL ELECTRIC COMPANY, priority 2014, dated 2016):

Tests used:
[1] = target: T1, cystine/glutamate transporter (Homo sapiens, UniProt Q9UPY5); test: inhibition of 3H-L-Glu uptake in DEM treated cells; assay type: cell-based; settings: for remaining activity at 1000 µM: 0.5 h, 1 mM agent, 30 minutes uptake at room temperature, cells pretreated with 100 μM DEM overnight, triplicate, lower = inhibition of the transporter, read-out: % of contro1 3H-Glu uptake
T1 construct: endogenous in cells; host or cells: SKOV3 cells treated with 100 uM DEM (the paragraph also says 'DEM treated EL4 cells')
T1 sequence (Q9UPY5 1-501): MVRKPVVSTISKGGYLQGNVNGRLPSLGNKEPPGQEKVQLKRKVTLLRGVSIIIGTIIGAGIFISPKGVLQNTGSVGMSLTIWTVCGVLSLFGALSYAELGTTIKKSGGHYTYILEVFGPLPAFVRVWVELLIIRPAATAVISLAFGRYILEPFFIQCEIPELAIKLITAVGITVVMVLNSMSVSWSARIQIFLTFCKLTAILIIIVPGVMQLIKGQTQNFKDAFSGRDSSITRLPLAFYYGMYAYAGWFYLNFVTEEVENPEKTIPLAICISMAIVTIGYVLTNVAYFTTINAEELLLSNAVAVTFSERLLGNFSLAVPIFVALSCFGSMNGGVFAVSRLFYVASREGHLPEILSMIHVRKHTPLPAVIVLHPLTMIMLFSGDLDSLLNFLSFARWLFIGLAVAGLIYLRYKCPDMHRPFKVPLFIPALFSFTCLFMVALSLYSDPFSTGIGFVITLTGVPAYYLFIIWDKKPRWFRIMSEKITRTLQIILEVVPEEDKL
T1 sequence (P08195 2-529 partner): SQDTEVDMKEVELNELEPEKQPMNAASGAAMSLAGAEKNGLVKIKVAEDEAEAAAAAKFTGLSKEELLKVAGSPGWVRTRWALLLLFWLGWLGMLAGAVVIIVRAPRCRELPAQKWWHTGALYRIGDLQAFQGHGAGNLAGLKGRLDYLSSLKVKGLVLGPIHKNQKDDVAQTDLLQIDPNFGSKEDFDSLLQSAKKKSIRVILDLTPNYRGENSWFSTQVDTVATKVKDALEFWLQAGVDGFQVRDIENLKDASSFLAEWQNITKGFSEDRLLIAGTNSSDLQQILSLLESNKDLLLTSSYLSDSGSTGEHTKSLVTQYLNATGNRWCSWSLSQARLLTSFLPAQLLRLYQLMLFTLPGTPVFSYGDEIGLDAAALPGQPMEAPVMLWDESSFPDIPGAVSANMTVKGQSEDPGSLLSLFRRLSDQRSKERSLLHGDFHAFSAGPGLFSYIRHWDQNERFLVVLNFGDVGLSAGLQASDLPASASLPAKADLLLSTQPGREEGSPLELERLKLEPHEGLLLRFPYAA
Description: Following are non-limiting examples used to illustrate various embodiments of the imaging agents and methods of use. As such Table 1 provides examples of the non-labelled analog of the final product. Also provided are measurements of inhibition response of ^3H-L-GLU (control) uptake in DEM treated EL4 cells. As such 96 well plate were seeded with 100,000 SKOV3 cells/well in complete growth media (McCoy's+10% Fetal Bovine Serum(FBS)) and incubated overnight at 37° C. The media was changed to 100 μM DEM and again incubated overnight at 37° C. Wash 1× with Hank's Balanced Salt Solution (HBSS) Room Temperature and assayed 50 μl of each agent (Table 1) in triplicate by incubating for 30 minutes (uptake) at room temperature. It was then washed twice with HBSS and 200 μl MicroScint20 added for counting. The protocol used 200 uCi 3H-Glu per well. The mix and agent and ^3H-Glu provided a final concentration of 200 uCi and 1 mM agent. […] As such lower response is indicative of inhibition of the transporter. As such numbers below approximately 30% is equivalent to 70% inhibition and are considered good candidates for pharmaceutical agents.

[2] = target: T2, oxidative stress transporter (Homo sapiens, UniProt Q9UPY5); settings: as reported in U.S. patent application Ser. No. 13/234,210; cited from earlier work
T2 sequence (Q9UPY5 1-501): T1 sequence (Q9UPY5 1-501)
T2 sequence (P08195 1-529 partner): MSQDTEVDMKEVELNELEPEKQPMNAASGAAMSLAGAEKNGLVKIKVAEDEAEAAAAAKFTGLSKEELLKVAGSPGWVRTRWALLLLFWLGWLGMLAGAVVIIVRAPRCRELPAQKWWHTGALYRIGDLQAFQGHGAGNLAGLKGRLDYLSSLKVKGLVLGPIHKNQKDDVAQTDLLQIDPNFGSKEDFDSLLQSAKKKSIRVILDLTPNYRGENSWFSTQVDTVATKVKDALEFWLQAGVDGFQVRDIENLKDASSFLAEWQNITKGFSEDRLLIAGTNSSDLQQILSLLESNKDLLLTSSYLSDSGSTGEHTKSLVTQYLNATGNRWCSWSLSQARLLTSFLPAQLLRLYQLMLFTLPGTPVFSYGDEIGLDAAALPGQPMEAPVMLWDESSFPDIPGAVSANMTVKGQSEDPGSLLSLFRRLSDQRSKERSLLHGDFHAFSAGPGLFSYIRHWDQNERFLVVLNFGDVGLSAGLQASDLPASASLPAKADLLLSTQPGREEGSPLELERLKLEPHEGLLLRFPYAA

Row | remaining activity at 1000 µM [1] [%] | uptake compared to structures 1n, 1o, or 1p (hydroxyproline stereoisomers) ([1]; comparison of the 2S,4R-hydroxyproline scaffold with the other stereoisomers) | Compound | uptake via the oxidative stress transporter [2]
1 | 30.9 | – | N[C@@H](CCC(=O)N1C[C@H](Cc2ccccc2)C[C@H]1C(=O)O)C(=O)O [1k] | –
2 | 36.6 | – | N[C@@H](CCC(=O)N1C[C@H](Oc2ccccc2)C[C@H]1C(=O)O)C(=O)O [1l] | –
3 | 14.9 | improved uptake | N[C@@H](CCC(=O)N1C[C@H](OCc2ccccc2)C[C@H]1C(=O)O)C(=O)O [1m] | –
4 | 26.2 | – | N[C@@H](CCC(=O)N1C[C@@H](OCc2ccccc2)C[C@H]1C(=O)O)C(=O)O [1n] | –
5 | 43.2 | – | N[C@@H](CCC(=O)N1C[C@@H](OCc2ccccc2)CC1C(=O)O)C(=O)O (some centres unmarked) [1o] | –
6 | 50 | – | N[C@@H](CCC(=O)N1C[C@H](OCc2ccccc2)CC1C(=O)O)C(=O)O (some centres unmarked) [1p] | –
7 | 14.5 | – | CCOc1cccc(CO[C@@H]2C[C@@H](C(=O)O)N(C(=O)CC[C@H](N)C(=O)O)C2)c1 [1q] | –
8 | 10.1 | – | N[C@@H](CCC(=O)N1C[C@H](OCc2ccc(COCCF)cc2)C[C@H]1C(=O)O)C(=O)O [1r] | –

Continued, compound first:

Row | Compound | remaining activity at 1000 µM [1] [%] | uptake compared to structures 1n, 1o, or 1p (hydroxyproline stereoisomers) ([1]; comparison of the 2S,4R-hydroxyproline scaffold with the other stereoisomers) | uptake via the oxidative stress transporter [2]
9 | N[C@@H](CCC(=O)N1CCC[C@H]1C(=O)O)C(=O)O [1a] | 46.3 | – | –
10 | N[C@@H](CCC(=O)N1CCC[C@@H]1C(=O)O)C(=O)O [1b] | 84 | – | –
11 | N[C@@H](CCC(=O)N1C[C@H](O)C[C@H]1C(=O)O)C(=O)O [1c] | 73.6 | – | –
12 | N[C@@H](CCC(=O)N1C[C@H](F)C[C@H]1C(=O)O)C(=O)O [1d] | 51.8 | – | –
13 | N[C@@H](CCC(=O)N1C[C@@H](O)C[C@@H]1C(=O)O)C(=O)O [1e] | 74 | – | –
14 | N[C@@H](CCC(=O)N1C[C@@H](O)C[C@H]1C(=O)O)C(=O)O [1f] | 30.8 | – | –
15 | N[C@@H](CCC(=O)N1C[C@H](O)C[C@@H]1C(=O)O)C(=O)O [1g] | 94.7 | – | –
16 | N[C@@H](CCC(=O)N1C[C@H](c2ccccc2)C[C@H]1C(=O)O)C(=O)O [1h] | 52.3 | – | –
17 | N[C@@H](CCC(=O)N1C[C@@H](c2ccccc2)C[C@H]1C(=O)O)C(=O)O [1i] | 46.2 | – | –
18 | N[C@@H](CCC(=O)N1C[C@@H](Oc2ccccc2)C[C@H]1C(=O)O)C(=O)O [1j] | 33 | – | –
19 | N[C@@H](CCCCCC(=O)O)C(=O)O [aminosuberic acid] | – | – | good uptake
